The source of these data is patent US10674732B2, “Anti-phytopathogenic compositions” (The State of Israel, Ministry Of Agriculture & Rural …, priority 2015, dated 2020).

≈ marks a conversion by molar mass, not a printed value.

One experiment deals with spiroplasma. The experiment is described as follows: Antagonistic test of the bacteria's specific compounds (synthetic compounds on spiroplasma in vitro). The format is cell-based, Spiroplasma melliferum. Conditions: 1 milimolar, three days at 29° C. The procedure: After potential inhibitory compounds (4-Quinolinecarboxaldehyde and 5-Hydroxymethyl-2-furaldehyde) were identified in the active fraction extracts of the bacteria's supernatant, parallel synthetic compound were purchased (Sigma) and examined on spiroplasma in vitro: 1 ml of spiroplasma medium, 10 μl spiroplasma cells and 10 μl of each compound (final concentration of 1 milimolar) were incubated for three days at 29° C. […] Changes in the indicator color from red to yellow indicated spiroplasma growth.
On to `O=Cc1ccc(CO)o1` [Hydroxymethyl-2-furaldehyde, 5-Hydroxymethyl-2-furaldehyde], for which the spiroplasma growth inhibition result was “no inhibition”.

Turning to `O=Cc1ccnc2ccccc12` [Quinolinecarboxaldehyde, 4-Quinolinecarboxaldehyde], the spiroplasma growth inhibition result is given as “able to inhibit”.

In the next experiment the test system is DLB. The experiment is described as follows: DLB antibiotic susceptibility test. Type of experiment: cell-based, Dyella-like bacterium.
Details: not given
Consider `NCC[C@H](O)C(=O)N[C@@H]1C[C@H](N)[C@@H](O[C@H]2O[C@H](CN)[C@@H](O)[C@H](O)[C@H]2O)[C@H](O)[C@H]1O[C@H]1O[C@H](CO)[C@@H](O)[C@H](N)[C@H]1O` [amikacin], for which the Inhibition cycle diameter is 10 mm.

With `CC1(C)S[C@@H]2[C@H](NC(=O)[C@H](N)c3ccc(O)cc3)C(=O)N2[C@H]1C(=O)O` [amoxycillin], the Inhibition cycle diameter came to 10 mm.

The compound `CC1(C)S[C@@H]2[C@H](NC(=O)[C@H](N)c3ccccc3)C(=O)N2[C@H]1C(=O)O` [ampicilin A] came in with an Inhibition cycle diameter of 10 mm.

Take `C[C@H]1[C@H](NC(=O)/C(=N\OC(C)(C)C(=O)O)c2csc(N)n2)C(=O)N1S(=O)(=O)O` [aztreonam]: the Inhibition cycle diameter was found to be 1 mm and the “resistance of the bacterium to the antibiotic” value (from here on “resistance of the bacterium”) was “resistant”.

For the compound `CC1(C)S[C@@H]2[C@H](NC(=O)C(C(=O)O)c3ccccc3)C(=O)N2[C@H]1C(=O)O` (stereo partly shown) [carbencillin], the Inhibition cycle diameter was found to be 10 mm.

Take `CO/N=C(\C(=O)N[C@@H]1C(=O)N2C(C(=O)[O-])=C(C[N+]3(C)CCCC3)CS[C@H]12)c1csc(N)n1` [cefeprime]: the Inhibition cycle diameter amounted to 1 mm and the “resistance of the bacterium” value is “resistant”.

The compound `CO/N=C(\C(=O)N[C@@H]1C(=O)N2C(C(=O)O)=C(CSc3nc(=O)c(=O)[nH]n3C)CS[C@H]12)c1csc(N)n1` [ceftriaxone] registered an Inhibition cycle diameter of 10 mm.

With `CO/N=C(\C(=O)N[C@@H]1C(=O)N2C(C(=O)O)=C(COC(N)=O)CS[C@H]12)c1ccco1` [cefuroxime], the Inhibition cycle diameter turned out to be 1 mm and the “resistance of the bacterium” value was “resistant”.

In the case of `CC(=O)OCC1=C(C(=O)O)N2C(=O)[C@@H](NC(=O)Cc3cccs3)[C@H]2SC1` [cephalothin], the Inhibition cycle diameter is listed as 2 mm and the “resistance of the bacterium” value is reported as “resistant”.

`O=C(N[C@H](CO)[C@H](O)c1ccc([N+](=O)[O-])cc1)C(Cl)Cl` [chloramphenicol] registered an Inhibition cycle diameter of 10 mm.

Turning to `O=C(O)c1cn(C2CC2)c2cc(N3CCNCC3)c(F)cc2c1=O` [ciprofloxacin], the Inhibition cycle diameter came out at 2 mm and the “resistance of the bacterium” value is “resistant”.

Consider `C[C@@H](O)[C@H]1C(=O)N2C(C(=O)O)=C(SCCN=CN)C[C@H]12` [imipenem], for which the Inhibition cycle diameter is 2-3 mm.

Consider `NC[C@H]1O[C@H](O[C@H]2[C@H](O)[C@@H](O[C@H]3O[C@H](CO)[C@@H](O)[C@H](N)[C@H]3O)[C@H](N)C[C@@H]2N)[C@H](O)[C@@H](O)[C@@H]1O` [kanamycin], for which the Inhibition cycle diameter is reported as 10 mm.

`C[C@@H](O)[C@H]1C(=O)N2C(C(=O)O)=C(S[C@@H]3CN[C@H](C(=O)N(C)C)C3)[C@H](C)[C@H]12` [meropenem]: the Inhibition cycle diameter amounted to 1 mm and the “resistance of the bacterium” value is “resistant”.

For the compound `CCn1cc(C(=O)O)c(=O)c2ccc(C)nc21` [nalidixic acid], the Inhibition cycle diameter is reported as 1 mm and the “resistance of the bacterium” value is “resistant”.

Take `O=C1CN(/N=C/c2ccc([N+](=O)[O-])o2)C(=O)N1` [nitrofuration]: the Inhibition cycle diameter stood at 2 mm and the “resistance of the bacterium” value is reported as “resistant”.

As for `CCn1cc(C(=O)O)c(=O)c2cc(F)c(N3CCNCC3)cc21` [norfloxacin], the Inhibition cycle diameter worked out at 2 mm and the “resistance of the bacterium” value was “resistant”.

Consider `CCN1CCN(C(=O)N[C@@H](C(=O)N[C@@H]2C(=O)N3[C@@H]2SC(C)(C)[C@@H]3C(=O)O)c2ccccc2)C(=O)C1=O` [piperacillin], for which the Inhibition cycle diameter worked out at 10 mm.

For `[H]/N=C(/N)N[C@H]1[C@H](O)[C@@H](O)[C@H](O[C@@H]2O[C@@H](C)[C@](O)(C=O)[C@H]2O[C@@H]2O[C@@H](CO)[C@H](O)[C@@H](O)[C@@H]2NC)[C@@H](N/C(N)=N\[H])[C@@H]1O` [streptomycin], the Inhibition cycle diameter was found to be 10 mm.

`Cc1cc(NS(=O)(=O)c2ccc(N)cc2)no1` [sulphamethoxazole] registered an Inhibition cycle diameter of 10 mm.

Regarding `CN(C)[C@@H]1C(O)=C(C(N)=O)C(=O)[C@@]2(O)C(O)=C3C(=O)c4c(O)cccc4[C@@](C)(O)[C@H]3C[C@@H]12` [tetracycline], the Inhibition cycle diameter worked out at 10 mm.

The compound `CC1(C)S[C@@H]2[C@H](NC(=O)[C@H](C(=O)O)c3ccsc3)C(=O)N2[C@H]1C(=O)O` [ticarcillin] came in with an Inhibition cycle diameter of 10 mm.

As to `NC[C@H]1O[C@H](O[C@H]2[C@H](O)[C@@H](O[C@H]3O[C@H](CO)[C@@H](O)[C@H](N)[C@H]3O)[C@H](N)C[C@@H]2N)[C@H](N)C[C@@H]1O` [tobaramycin], the Inhibition cycle diameter worked out at 10 mm.

`COc1cc(Cc2cnc(N)nc2N)cc(OC)c1OC` [trimethoprime] displayed an Inhibition cycle diameter of 10 mm.

`CN[C@H](CC(C)C)C(=O)N[C@H]1C(=O)N[C@@H](CC(N)=O)C(=O)N[C@H]2C(=O)N[C@H]3C(=O)N[C@H](C(=O)N[C@H](C(=O)O)c4cc(O)cc(O)c4-c4cc3ccc4O)[C@H](O)c3ccc(c(Cl)c3)Oc3cc2cc(c3O[C@@H]2O[C@H](CO)[C@@H](O)[C@H](O)[C@H]2O[C@H]2C[C@](C)(N)[C@H](O)[C@H](C)O2)Oc2ccc(cc2Cl)[C@H]1O` [vancomycin] came in with an Inhibition cycle diameter of 10 mm.

For colistinsulfate, the Inhibition cycle diameter is given as 2-3 mm and the “resistance of the bacterium” value is on record as “resistant”.

Consider gentanicin G, for which the Inhibition cycle diameter is recorded as 10 mm.

Consider neomycin, for which the Inhibition cycle diameter is on record as 10 mm.

Turning to polymyxin-B, the Inhibition cycle diameter is given as 10 mm.

In another experiment the test system is Spiroplasma melliferum. The experiment is described as follows: Microplate test of spiroplasma growth (OD=595 nm). The format is cell-based. Conditions: 1 mM, single compound. The procedure:
For this reason, the potential inhibition of these substances was tested on Spiroplasma melliferum, a cultivable Mollicute. The experiment was conducted in a 96-wells microplate. 150 μl fresh broth containing phenol red and 4 μl spiroplasma cells (app. 10^5 cells) were added to each well. […] The microplate was incubated for two days at 28° C. and the color of the medium was scored by a plate-reader (Multiskan EX, Thermo scientific, Waltham, Mass. USA) at OD=595 nm.
As to `c1cc2cnccn2c1` [Pyrrolo[1,2-a]pyrazine], the spiroplasma growth inhibition result is on record as “at 2 mM only”.

For the compound `O=Cc1ccnc2ccccc12` [Quinolinecarboxaldehyde, 4-Quinolinecarboxaldehyde], the spiroplasma growth inhibition entry is listed as “inhibited”.

Staying with this experiment, now noted: 2 mM, single compound.
Take `c1cc2cnccn2c1` [Pyrrolo[1,2-a]pyrazine]: the spiroplasma growth inhibition result is on record as “inhibit”.

`O=Cc1ccnc2ccccc12` [Quinolinecarboxaldehyde, 4-Quinolinecarboxaldehyde]: the spiroplasma growth inhibition result is listed as “inhibited”.

The experiment is the same for the next values; noted with them: Spiroplasma melliferum, 48 h; two days at 28° C., FIG. 9; read-out: minimum inhibitory concentration (MIC).
For the compound `CN(C)[C@@H]1C(O)=C(C(N)=O)C(=O)[C@@]2(O)C(O)=C3C(=O)c4c(O)cccc4[C@@](C)(O)[C@H]3[C@H](O)[C@@H]12` [oxytetracycline], the MIC stood at 350 µM (≈ 161 µg/mL).

Staying with this experiment, now noted: concentrations examined (2-0.02 mM), single compound.
`O=Cc1ccc(CO)o1` [Hydroxymethyl-2-furaldehyde, 5-Hydroxymethyl-2-furaldehyde]: the spiroplasma growth inhibition entry is recorded as “No inhibition”.

Staying with this experiment, now noted: two days at 28° C.
As for `O=Cc1ccnc2ccccc12` [Quinolinecarboxaldehyde, 4-Quinolinecarboxaldehyde], the “minimum inhibitory concentration (MIC) compared with reference oxytetracycline” value was “higher than the reference antibiotics”.

In a further experiment the test system is Spiroplasma melliferum. The experiment is described as follows: Antagonistic test of the bacteria's supernatant (time to color change of phenol red medium). The conditions noted are these: 0.5 μg/ml.
With `CN(C)[C@@H]1C(O)=C(C(N)=O)C(=O)[C@@]2(O)C(O)=C3C(=O)c4c(O)cccc4[C@@](C)(O)[C@H]3[C@H](O)[C@@H]12` [oxytetracycline], the “Inhibition index (ratio of days to color change to the time required in the positive control)” value is recorded as 2.3.
